This is an account of results in the NIST ThermoML archive (doi:10.1016/j.jct.2010.04.011).

± gives the expanded uncertainty stated by the source.

This data set can be described thus: activity coefficient (dimensionless); of the first substance listed, at infinite dilution; xn = mol fraction of the nth substance listed. To be noted: 298 K, Chromatography, x1 = 0.

`C1=CC=CCC=C1` [1,3,5-cycloheptatriene] + C[S+](C)[O-]: the activity coefficient (101 kPa, Liquid) is 5.7 ± 1.2.

As to `C=CCCC=C` [1,5-hexadiene] + CCCCCCCCCCCCCCCC, the activity coefficient (101 kPa, Liquid) is 0.8 ± 0.16. Still for that read-out and setting: the result for `C=CCCC=C` [1,5-hexadiene] + C[S+](C)[O-] reads 11.6 ± 2.4; that for `Cc1ccc(C(C)C)cc1` [1-(1-methylethyl)-4-methylbenzene] + C[S+](C)[O-], 15.1 ± 3.1.

As to `C#CCCCCC` [1-heptyne] + C[S+](C)[O-], the activity coefficient (101 kPa, Liquid) was 6.9 ± 1.4.

In the case of `C#CCCCC` [1-hexyne] + C[S+](C)[O-], for the setting “101 kPa, Liquid”, the activity coefficient amounted to 4.1 ± 0.8.

In the case of `C#CCCCCCC` [1-octyne] + C[S+](C)[O-], where the note is “101 kPa, Liquid”, the activity coefficient is 10.2 ± 2.1. With `C=CC1CC=CCC1` (configuration not stated) [4-ethenylcyclohexene] + CCCCCCCCCCCCCCCC, the activity coefficient (Gas) is 0.96 ± 0.19. `C=CC1CC=CCC1` (configuration not stated) [4-ethenylcyclohexene] + C[S+](C)[O-]: the activity coefficient (101 kPa, Liquid) worked out at 20.7 ± 4.2. As for `ClC(Cl)(Cl)Br` [bromotrichloromethane] + C[S+](C)[O-], for the setting “101 kPa, Liquid”, the activity coefficient was 2.1 ± 0.4. For the molecule `C1=CCCCC1` [cyclohexene] + C[S+](C)[O-], the activity coefficient (101 kPa, Liquid) turned out to be 14.9 ± 3. In the case of `C1CCCCCCC1` [cyclooctane] + CCCCCCCCCCCCCCCC, the activity coefficient (Gas) worked out at 0.96 ± 0.19. With `C1CCCCCCC1` [cyclooctane] + C[S+](C)[O-], the activity coefficient (101 kPa, Liquid) stood at 63.3 ± 13.

With `C1=CCCC1` [cyclopentene] + C[S+](C)[O-], the activity coefficient (101 kPa, Liquid) came to 7 ± 1.4. In the case of `CC1CCCCC1` [methylcyclohexane] + C[S+](C)[O-], the activity coefficient (101 kPa, Liquid) worked out at 49.2 ± 10. `CC1CCCC1` [methylcyclopentane] + C[S+](C)[O-]: the activity coefficient (101 kPa, Liquid) came out at 29.5 ± 6. On the same count and under the same terms, the result for `ClC(Cl)=C(Cl)Cl` [tetrachloroethene] + C[S+](C)[O-] reads 10.5 ± 2.1.
